Four molecules from patent publication US20080085889A1, “Amidomethyl-Substituted 1-(Carboxyalkyl) Cyclopentyl-Carbonylamino-Benzazepine-N-Acetic Acid Compounds, Process and Intermediate Products for Their Preparation and Pharmaceutical Compositions Containing Them” (SOLVAY PHARMACEUTICALS GmbH, priority 2003, published 2008) can be followed below.

pIC50: −log10 of the molar value. Like-named read-outs stand apart in the source and are kept apart here.

Assay [1] deals with NEP (prepared from pig kidney cortex). Briefly: Enzymatic breakdown of CNP and VIP by NEP and its inhibition, in vitro, HPLC. It is filed as biochemical. The protocol: The inhibition of the enzymatic breakdown of CNP and VIP by the compounds used according to the invention was measured in an enzymatic in vitro assay according to the following protocol:
All test compounds were dissolved in DMSO at 10 mM and further diluted with assay buffer.
80 μl of assay buffer, 10 μl of enzyme working solution (NEP or hSEP) and 10 μl of peptide stock solution (VIP or CNP) were mixed in an Eppendorf vial and incubated for 120 min. at 37° C. The enzymatic reaction was subsequently terminated by heating to 95° C. for 5 min. After centrifugation (Heraeus Biofuge B, 3 min) the supernatant was subjected to HPLC.
70 μl of assay buffer, 10 μl of enzyme working solution (NEP or hSEP) and 10 μl of a test compound solution were mixed in an Eppendorf vial and preincubated at 37° C. for 15 minutes. Then, 10 μl of peptide stock solution (VIP or CNP) was added and the reaction mixture was incubated at 37° C. for 60 min. to allow enzymatic hydrolysis. […]
All peptides were detected by absorbance at 214 nm (UV spectroscopy). The percentage (=%) of hydrolysis was calculated on the basis of the peak area of the undegraded peptide for an enzyme containing sample Y in correlation to a sample containing the same concentration of peptide without enzyme (blank) by the following equation: % hydrolysis=100*(blank−Y) […]

Assay [2] concerns the target T1, His6-tagged hSEP ectodomain (Homo sapiens, UniProt Q495T6).
T1 construct: His6-tagged hSEP ectodomain; His6; purchased Innogenetics, Ghent, Belgium
T1 sequence (Q495T6 49-779 limits assumed): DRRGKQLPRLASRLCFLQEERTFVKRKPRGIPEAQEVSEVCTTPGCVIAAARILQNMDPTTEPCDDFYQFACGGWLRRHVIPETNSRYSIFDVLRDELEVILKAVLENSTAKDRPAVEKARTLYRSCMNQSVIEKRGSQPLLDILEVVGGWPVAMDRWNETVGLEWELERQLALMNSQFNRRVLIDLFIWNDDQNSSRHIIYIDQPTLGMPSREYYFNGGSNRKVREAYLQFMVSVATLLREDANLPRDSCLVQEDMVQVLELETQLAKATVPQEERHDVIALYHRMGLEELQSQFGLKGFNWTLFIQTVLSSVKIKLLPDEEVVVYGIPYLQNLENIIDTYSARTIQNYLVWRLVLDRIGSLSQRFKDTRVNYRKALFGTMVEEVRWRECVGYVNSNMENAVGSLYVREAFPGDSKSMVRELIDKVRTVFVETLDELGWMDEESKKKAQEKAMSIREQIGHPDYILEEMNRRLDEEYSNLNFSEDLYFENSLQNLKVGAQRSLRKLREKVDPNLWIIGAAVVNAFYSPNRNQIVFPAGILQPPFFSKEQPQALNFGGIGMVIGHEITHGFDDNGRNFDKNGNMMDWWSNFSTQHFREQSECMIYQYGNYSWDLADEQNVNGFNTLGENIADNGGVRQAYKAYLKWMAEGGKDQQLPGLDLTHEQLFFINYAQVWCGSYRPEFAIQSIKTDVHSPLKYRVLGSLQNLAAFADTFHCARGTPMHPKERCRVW
Briefly: In vitro investigation of the hSEP-inhibitory action (fluorescence-quenched Big-ET-1 analogue, HPLC). It is filed as biochemical. The procedure, abridged: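 Performed as for the NEP assay, with HPLC analysis and 10 nM phosphoramidon as the standard inhibitor. IC50 is the compound concentration blocking 50% of hSEP enzymatic activity.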

Assay [3] has as its system maximal SAP response to Big-ET. Briefly: In vivo i.v. potency (ID50) to inhibit maximal SAP response to Big-ET in anesthetized rats. On the set-up: species or system Rats (Sprague-Dawley). As to conditions: Rattus norvegicus, iv, dose at which the pressor effect of Big-ET was suppressed by 50%. The protocol: Rats (Sprague-Dawley, CRLD=Charles River) were anaesthetised with 1 ml/kg Rompun/Ketavet 1:1. A pressure transducer (Statham) was inserted into the carotid artery to measure blood pressure.
For intravenous testing, one jugular vein was cannulated for administering the substance, and the other for administering Big-ET-1. […] Five minutes later, 0.5 nmol/kg Big-ET-1 was infused over a period of one minute. SAP, DAP, and heart rate were measured before administration of the substance, then before administration of Big-ET, and subsequently every five minutes after Big-ET administration over a period of 30 minutes using the pressure transducer in known manner. The maximum Big-ET-induced increase in blood pressure was calculated from the measured values as the difference between the value measured at the moment of maximum development of the Big-ET action (typically after 5 min) and the value measured before Big-ET infusion. The dose at which the pressor effect of Big-ET was suppressed by 50% (ID50) was estimated from the inhibitory effects observed over the range of dosages tested (n>5 rats for each dose).
The intravenous potency of the test compounds of Formula I (given as ID50 values) to inhibit the maximal SAP response to Big ET in anesthetized rats is set forth in the following Table 3b: […]

In the case of “{(3S)-3-[({1-[(2″rel1″)-2-ethoxycarbonyl)-4-(isopropylamino)-4-oxobutyl]cyclopentyl}-carbonyl)amino]-2-oxo-2,3,4,5-tetrahydro-1H-1-benzazepin-1-yl}acetic acid [Example 4]”, the pIC50 in assay [1] (substrate CNP (32-53), read-out: inhibition of breakdown of CNP by NEP, IC50) was 8.00; in assay [1] (substrate VIP, read-out: inhibition of breakdown of VIP by NEP, IC50) it was 8.51.
In turn, `CC(C)NC(=O)CC(CC1(C(=O)N[C@H]2CCc3ccccc3N(CC(=O)O)C2=O)CCCC1)C(=O)O` (stereo in doubt) [Example 3, (2″rel1″)-2-{[(3S)-1-({[1-(carboxymethyl)-2-oxo-2,3,4,5-tetrahydro-1H-1-benzazepin-3-yl]amino}-carbonyl)cyclopentyl]methyl}-4-(isopropylamino)-4-oxobutyric acid] gave a pIC50 in assay [2] of 8.11.
As for `CCN(CCCCN)C(=O)CC(CC1(C(=O)NC2CCc3ccccc3N(CC(=O)O)C2=O)CCCC1)C(=O)O` [Example 81, (2″rel1″)-4-[(4-aminobutyl)(ethyl)amino]-2-{[1-({[(3S)-1-(carboxymethyl)-2-oxo-2,3,4,5-tetrahydro-1H-1-benzazepin-3-yl]amino}carbonyl)cyclopentyl]methyl}-4-oxobutanoic acid], the pIC50 in assay [2] is 8.70. This molecule returned an ED50 in assay [3] of 0.05 µmol/kg.
`CN(C)CCCN(C)C(=O)CC(CC1(C(=O)NC2CCc3ccccc3N(CC(=O)O)C2=O)CCCC1)C(=O)O` (stereo not shown) [Example 64, 2-[(1-{[1-(carboxymethyl)-2-oxo-2,3,4,5-tetrahydro-1H-1-benzazepin-3-yl]carbamoyl}cyclopentyl)methyl]-4-{[3-(dimethylamino)propyl](methyl)amino}-4-oxobutanoic acid] had a pIC50 in assay [2] of 8.30. In assay [3], this molecule returned an ED50 of 0.2 µmol/kg.

In general, pIC50 refers to the negative decadic logarithm of the IC50, by convention in mol/L. Usually ED50 stands for the dose at which the effect has come halfway, by size or by number of responders. Low values mean greater potency, high ones weaker potency.
